Measurements as given in US20070072251A1, “In vivo imaging using peptide derivatives” (CTT Cancer Targeting Technologies OY, priority 2003, published 2007).
Where a SMILES comes first, the peptide text is derived from it. Bridges are numbered along the chain shown (N, C = ends). Where no end group is shown, it is not given here. The star is where a group is joined. DTPA = O=C(O)CN(CCN(CC(=O)O)CC(=O)O)CCN(CC(=O)O)CC(=O)*

Experiments:
[1] = Tumor targeting of radiolabelled LLG derivatives in mouse model of human myelomonocytic leukemia (gamma imaging, tissue counting); assay type: in vivo; settings: mouse, in vivo, total radioactivity; at 24 hrs, intravenous injection, U937 model; read-out: absolute tumor-to-blood ratio
From the text: (§1) I-125 label, mouse model of human myelomonocytic leukemia. Planar gamma image. In these figures animals have been injected with radiolabelled peptide and anesthesized animals have been imaged under gamma camera (pinhole collimator, Picker SX-300 gamma camera).
(§2) The radiolabelled peptide derivatives were imaged at different time points using gamma camera in order to study tumor uptake in vivo as a function of time. After last imaging, tumor tissue were extirpated and counted for radioactivity. Detailed microdistribution was studied using quantitative autoradiography.
(§3) The peptide was labelled using In-111 label and direct iodination, as well as cDTPA.
(§4) The peptide was labelled using In-111 label and direct iodination and cDTPA. […] In this model absolute tumor-to-blood ratio was 4.7 at 24 hrs.

[2] = tested on: human myelomonocytic leukemia U937 cell line; experiment: as above; assay type: in vivo
From the text: as §1, §2, §3, §4

integrin I-domain = experiment: BIACORE affinity of LLG to integrin; assay type: binding; settings: 134 nM-134 μM; not detectable due to the small size of the peptide
Method: We examined the affinity of LLG to integrin using BIACORE. In this method, purified integrin I-domain was immobilized on the gold coated carboxymethylated dextran chip. The immobilization succeeded, and in various channels a RU between 2000-4000 was obtained. Various concentrations (3.3 nM-33 μM) of LLG-GST or GST were tested for their ability to bind to the I-domain. Reaction buffer was 10 mM HEPES (pH 7.4)-150 mM NaCl, with or without 1 mM MgCl2. […] Addition of detergent P20 0.05% could not diminish the background.
In another set of experiment, plain LLG peptide was used for affinity testing. The concentration of the tested peptide varied between 134 nM-134 μM. […] The BIACORE method is currently under development, and we intend to study the affinity again with a peptide coupled to a higher molecular weight, inert carrier molecule.

[3] = Biodistribution of I-125 labelled LLG in mice; assay type: in vivo; settings: 30 min and 180 min after tail vein injection
Method: LLG (YADGACPCFLLGCC) was labelled with I-125, and the purified peptide (40 μg; ˜500 kBq) was injected into the tail vein of mice in the volume of […]. At 30 min and 180 min after peptide injection, the mice were sacrificed and their blood and tissues were collected to measure the radioactivity. Results are expressed as percentage of injected dose per 1.0 g tissue (% D/g) (FIG. 11). All values are indicated as the mean±SD of 3 mice.

E. coli abscess = experiment: LLG targeting to E. coli abscess in rabbits (gamma camera imaging, gamma-counter biodistribution); assay type: in vivo, New Zealand White rabbits
Method: (§5) In this experiment, the targeting of LLG to sites of inflammation was examined in Wistar rats and New Zealand White rabbits, by inducing an abscess with approximately 1×10^9 colony-forming units of Staphylococcus aureus or Escherichia coli injected into the left tight muscle. During the procedure, the animals were anesthetized. After 24 hours, when swelling of the muscle was apparent, the In-111 radiolabeled peptide CPCFLLGCC was injected i.v. and accumulation of the peptide was followed with gamma camera imaging. The peptide was tested using 3 animals in both animal species.
The animals were followed-up for 4 hours. In late images urinary excretion disturbed the imaging, but signal-to-background ratio remained high. No other targets than abscess could be detected. Imaging would have been even more successful, if the rabbits would have been catheterized (or bladder emptied) before imaging session.
(§6) After the imaging period, animals were sacrificed, various tissues were collected and the accumulated radioactivity was measured using a gamma-counter. In FIG. 7A, the amount of accumulated peptide (expressed as percentage of injected dose/weight of the tissue measured; % ID/g) is shown for certain tissues of rabbits (mean of 3 animals). […] In these animals, the corresponding ratios were 4.5 and 2.0 for muscle and blood, respectively.

S. aureus abscess = experiment: LLG targeting to S. aureus abscess in rats (gamma camera imaging, gamma-counter biodistribution); assay type: in vivo, Wistar rats
Method: as §5
In rats assay, animals were followed-up for 2 hours after peptide injection. […] However, signal-to-background ratio remained high, and as in rabbits, no other targets than abscess could be detected.
as §6

THP-1 cell line = experiment: Blocking of LLG-GFP binding to THP-1 cell line; assay type: cell-based
Method: What has been observed is that at 50 μM YLLG concentration 95% of LLG-GFPs binding is been blocked. When concentrations are been lowered to 20 μM still 70% inhibition occurs. […] However, due to the unspecific binding of peptide to the plastic walls of the container and the relative high concentrations of LLG-GFP needed for signal nanomolar scale, experiments can not been performed with this setup on its current already un-optimized state.

[4] = tested on: accumulation of cells in peritoneal cavity; experiment: Inhibition of leukocyte migration into thioglycolate inflamed peritoneal cavity; assay type: in vivo, Balb/c mice; settings: 1 mg/kg iv
Method: To induce inflammation, female Balb/c mice were injected intraperitoneally with 1 ml of 3% Thioglycolate Broth (TG), three animals/group. Mice in the control group were injected iv with plain vehicle PBS-10% DMSO, and mice in the peptide group were injected iv with 1 mg/kg YADGACPCFLLGCC in PBS-10% DMSO. After 60 or 120 minutes, the mice were sacrificed. Cells in peritoneal cavity were collected by lavage with 5 ml PBS-5 mM EDTA, and counted with a hemocytometer.
In this experiment different cell populations were not distinguished. However, once again, YADGACPCFLLGCC reduced the accumulation of cells in experimental inflammation in vivo by 78% after 60 minutes and 52% after 120 minutes (FIG. 9).

[5] = % ID/g, mean of 3 animals, after imaging period

## CC(C)C[C@@H]1NC(=O)[C@H](CC(C)C)NC(=O)[C@H](Cc2ccccc2)NC(=O)[C@@H]2CSSC[C@@H](C(=O)O)NC(=O)[C@H](CSSC[C@H](NC(=O)[C@H](C)NC(=O)CNC(=O)[C@H](CC(=O)O)NC(=O)[C@H](C)NC(=O)[C@H](Cc3ccc(O)cc3)NC(=O)CN(CCN(CCN(CC(=O)O)CC(=O)O)CC(=O)O)CC(=O)O)C(=O)N3CCC[C@H]3C(=O)N2)NC(=O)CNC1=O [In-111-YADGA LLG, metal not drawn] ({DTPA}-YADGACPCFLLGCC-OH; disulfide 6-13, 8-14 (inferred); N-terminus and C-terminus assumed)
[1]
  tissue to tissue ratio at 24 h: 4.7
[2]; at 3 hrs after intravenous injection, FIG. 1
  tumor targeting (gamma image): clearly tumor targeting

## CPCFLLGCC [nonapeptide with two disulfide bridges, ligand to leukocyte β2 integrins]
Integrin I-domain
  specific binding to immobilized integrin I-domain: no specific binding could be detected

## I-125-YADGA LLG peptide: YADGACPCFLLGCC labelled with I-125 by direct iodination (cysteine pairing not given here; also: I-125 label by direct iodination)
[3]
  clearance: rapid clearance through kidneys
[3]; 40 μg
  tissue accumulation: did not accumulate in any tissue
[2]; at 24 hrs after intravenous injection, FIGS. 2-3
  tumor targeting (planar gamma image): tumor targeting

## In-111 radiolabeled peptide CPCFLLGCC: In-111 radiolabeled peptide CPCFLLGCC, cDTPA chelation (cysteine pairing not given here; also: In-111 radiolabel, cDTPA chelation)
E. coli abscess
  signal-to-background ratio in late images: remained high
E. coli abscess; [5]
  accumulation in abscess compared to blood: 2.3 fold
  accumulation in abscess compared to muscle: 21.7 fold
E. coli abscess; E. coli abscess in thigh muscle, i.v., followed 4 hours
  abscess targeting in gamma camera imaging: specific targeting into tight muscle, which was clearly visible within one hour
E. coli abscess; i.v.
  clearance: rapid clearance through kidneys
S. aureus abscess
  signal-to-background ratio in late images: remained high
S. aureus abscess; S. aureus abscess, followed 2 hours
  abscess targeting in gamma camera imaging: specific targeting
S. aureus abscess; after imaging period
  accumulation ratio abscess to blood: 2.0
  accumulation ratio abscess to muscle: 4.5

## YADGACPCFLLGCC
THP-1 cell line; 20 μM YLLG
  inhibition of LLG-GFPs binding: 70%
THP-1 cell line; 50 μM YLLG
  LLG-GFPs binding blocked: 95%
THP-1 cell line; judged from FIG. 12
  IC 50 of blocking LLG-GFP binding: on nanomolar scale
[4]; after 60 minutes
  reduction of accumulation of cells in experimental inflammation: 78%
[4]; after 120 minutes
  reduction of accumulation of cells in experimental inflammation: 52%
